US20090162329A1, “COMPOSITIONS COMPRISING HDAC INHIBITORS AND METHODS OF THEIR USE IN RESTORING STEM CELL FUNCTION AND PREVENTING HEART FAILURE” (priority 2007, published 2009)
Entries after “also recorded” stand apart in the source; their conditions may differ.

Experiments:
DNA methyltransferases = conditions: ECs and non-EC types; cited from earlier work
ESCs = assay: Effect of HDAC inhibitors on ESC differentiation after LIF removal (FIG. 23); type: cell-based, mouse; conditions: following LIF removal
From the text: FIG. 23. Effect of HDAC inhibitors on ESC differentiation. […] DAPI, blue.

class I and II HDAC = conditions: cited from earlier work
histone H3 = assay: Histone H3 methylation in ESCs by Western blotting (FIG. 15); type: cell-based; conditions: mouse ESCs, loading by histone H1
Protocol: FIG. 15. Histone methylation in VPCs, MPCs and ESCs. A: H3K79me2 is present in MPCs and absent in VPCs. B: Shear stress (SS) induces a 4-5-fold increase in H3K79me2 in mouse ESCs. […] Equal loading is determined on the basis of histone H1.
Western blotting. Genome-wide methylation and acetylation of histone 3 and histone 4 are analyzed. Protein lysates are obtained with Laemmli buffer containing β-mercaptoethanol. Proteins are separated on 15% SDS-PAGE, transferred onto nitrocellulose and exposed to specific antibodies against different histone modifications (H3K9me2/3, H3K27me3, H3K4me2/3, H3K79me3, H4K20me2, H4K5Ac, H4K8Ac, H4K12Ac, H4K16Ac, H3K9Ac, H3K14Ac). Loading conditions are determined by β-actin expression (6, 7, 58, 59). In a similar manner, HDAC expression is quantified in total cell lysates and in nuclear and cytoplasmic lysates (249, 250).

HDAC = conditions: mouse ESCs, nuclear HDAC activity
Protocol: E: The activity of HDAC was measured by employing acetylated H4 as substrate.

myocardial hypertrophy = conditions: following pressure overload; cited from earlier work

Structure (SMILES)	eNOS mRNA (DNA methyltransferases)	differentiation of ESCs into cardiovascular lineages / cardiac cell phenotypes (flk1, CD31, SM22, α-SA) (ESCs)	neuronal differentiation of ESCs (nestin expression) (ESCs)	cell cycle arrest and differentiation (class I and II HDAC)	overall methylation level of histone H3 (histone H3)	increase of HDAC activity early after LIF depletion (HDAC)	myocardial hypertrophy (myocardial hypertrophy)
Nc1ncn([C@@H]2O[C@H](CO)[C@@H](O)[C@H]2O)c(=O)n1 [5-azacytidine]	induces the upregulation of eNOS mRNA	–	–	–	–	–	–
Cn1c(/C=C/C(=O)NO)ccc1/C=C/C(=O)c1cccc(F)c1 [MC1568]	–	inhibits the cardiac commitment of ESCs	favors neuronal differentiation; also recorded: selective expression of nestin	–	–	–	–
Nc1ccccc1NC(=O)c1ccc(CNC(=O)OCc2cccnc2)cc1 [MS27-275]	–	triggers differentiation of ESCs to cardiac cell phenotypes; also recorded: promotes the preferential differentiation of ESCs into cardiovascular lineages	opposes neuronal commitment	–	–	–	–
CC(/C=C/C(=O)NO)=C\[C@@H](C)C(=O)c1ccc(N(C)C)cc1 [Trichostatin A]	–	–	selective expression of nestin	induces cell cycle arrest and differentiation	reduces the overall methylation level of histone H3	inhibited	blunts myocardial hypertrophy
